Consider 17 compounds from ChEMBL document CHEMBL1201862, “PubChem BioAssay data set” (2004).

Activity calls are given as the source filed them. Non-standard residues stand in square brackets, D forms with d. Residues, ends and D or L forms follow the SMILES beside them. ξ: configuration not given here. ξLac(3-iPr) = CC(C)CC(O)C(=O)O; NMeV = CN[CH](C(=O)O)C(C)C; NMeA = CN[CH](C)C(=O)O; βAla = NCCC(=O)O

For orientation: AC50 means the concentration at which the activity in the assay is half-maximal. The term CC50 denotes the concentration that lowers cell viability or growth by half. For orientation: IC50 means the concentration needed to halve the response being measured. As a reminder, the EC50 is the midpoint of the concentration-response curve.

The subject of test [1] is Escherichia coli. The test is described as follows: microbe, parasite or virus in culture.
The test system of test [2] is Vero. In words: cells. To be noted: Chlorocebus sabaeus. In kind it is functional.
In test [3] the test system is Vero. The test is described as follows: cells. In kind it is functional, cell-based. To be noted: Chlorocebus sabaeus.
The nature of test [4]: HepG2 cell cytotoxicity, dose response, cytotoxicity control for Shn3 inhibitor project, CellTiter-Glo, cherry-picked (AID 624134). In kind it is functional, cell-based.
Test [5] in a line: Shn3 3'UTR reporter inhibitors, dose response, cell-based, Clone20 osteoblasts, firefly luciferase, cherry-picked (AID 624132).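 Also: firefly luciferase luminescence from reporter carrying the Shn3 3'UTR in osteoblasts.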 The test is classed as functional.
Test [6] in a line: control 3'UTR Renilla luciferase suppression, dose response, counter-screen for Shn3 inhibitor project, cell-based, Clone20-Shn3RL, cherry-picked (AID 624133). The test is classed as functional. Background: The purpose of a counterscreen is to sort out artefacts and off-target activity.
Test [7] deals with Induced myeloid leukemia cell differentiation protein Mcl-1 (Homo sapiens, UniProt Q07820). In kind it is functional.
Sequence of Induced myeloid leukemia cell differentiation protein Mcl-1 (Q07820 whole entry): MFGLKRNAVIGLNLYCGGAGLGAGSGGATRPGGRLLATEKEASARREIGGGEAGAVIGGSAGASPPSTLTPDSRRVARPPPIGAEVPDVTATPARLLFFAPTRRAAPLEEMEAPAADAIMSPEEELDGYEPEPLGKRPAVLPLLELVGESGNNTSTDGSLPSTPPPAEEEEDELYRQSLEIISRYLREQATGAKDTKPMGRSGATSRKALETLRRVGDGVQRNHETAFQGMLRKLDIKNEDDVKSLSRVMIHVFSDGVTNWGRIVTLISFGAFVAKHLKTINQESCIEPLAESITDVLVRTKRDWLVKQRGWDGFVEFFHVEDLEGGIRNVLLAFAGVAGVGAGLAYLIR
Another test has as its target Prothrombin (Bos taurus, UniProt P00735). The test is described as follows: thrombin inhibition, dose response, biochemical, fluorescence polarization, uHTS hits (AID 602369). The test is classed as functional. On the technique in general: Fluorescence polarisation rises when a labelled molecule tumbles more slowly, as on binding a larger partner.
In test [8] the target is 26S proteasome non-ATPase regulatory subunit 14 (Homo sapiens, UniProt O00487). In words: inhibition of proteasome subunit RPN11 – biochemical, fluorescence polarization, uHTS hits, confirmation (AID 602368). The test is classed as functional.
Sequence of 26S proteasome non-ATPase regulatory subunit 14 (O00487 whole entry): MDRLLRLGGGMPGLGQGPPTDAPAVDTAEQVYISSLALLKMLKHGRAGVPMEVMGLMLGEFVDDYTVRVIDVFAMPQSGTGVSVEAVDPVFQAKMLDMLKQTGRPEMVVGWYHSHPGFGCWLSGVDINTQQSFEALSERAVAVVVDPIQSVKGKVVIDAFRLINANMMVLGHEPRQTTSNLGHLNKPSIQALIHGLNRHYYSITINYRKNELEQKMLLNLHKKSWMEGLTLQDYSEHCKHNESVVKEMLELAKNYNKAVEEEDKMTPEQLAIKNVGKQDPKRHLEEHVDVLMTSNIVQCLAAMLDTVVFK
Test [9] addresses 72 kDa type IV collagenase (Homo sapiens, UniProt P08253). In words: Dose Response validation of uHTS RPN11 inhibitor hits using a MMP-2 Fluorescence assay. In kind it is functional.
The subject of another test is INS1. The test is described as follows: inhibitors of cytokine-induced nitrite release, dose response, cell-based, Griess absorbance, INS-1E, dry powder (AID 488866). The test is classed as functional. The conditions noted are these: Rattus norvegicus. Background: Nitrite, measured by Griess reagent, commonly stands in for NO production.
In test [10] the test system is Escherichia coli. In words: microbe, parasite or virus in culture. The source holds these as a separate data set.
For test [11], the target named is T1, Rac GTPase-activating protein 1 (Homo sapiens, UniProt Q9H0H5).
T1 sequence (Q9H0H5 whole entry): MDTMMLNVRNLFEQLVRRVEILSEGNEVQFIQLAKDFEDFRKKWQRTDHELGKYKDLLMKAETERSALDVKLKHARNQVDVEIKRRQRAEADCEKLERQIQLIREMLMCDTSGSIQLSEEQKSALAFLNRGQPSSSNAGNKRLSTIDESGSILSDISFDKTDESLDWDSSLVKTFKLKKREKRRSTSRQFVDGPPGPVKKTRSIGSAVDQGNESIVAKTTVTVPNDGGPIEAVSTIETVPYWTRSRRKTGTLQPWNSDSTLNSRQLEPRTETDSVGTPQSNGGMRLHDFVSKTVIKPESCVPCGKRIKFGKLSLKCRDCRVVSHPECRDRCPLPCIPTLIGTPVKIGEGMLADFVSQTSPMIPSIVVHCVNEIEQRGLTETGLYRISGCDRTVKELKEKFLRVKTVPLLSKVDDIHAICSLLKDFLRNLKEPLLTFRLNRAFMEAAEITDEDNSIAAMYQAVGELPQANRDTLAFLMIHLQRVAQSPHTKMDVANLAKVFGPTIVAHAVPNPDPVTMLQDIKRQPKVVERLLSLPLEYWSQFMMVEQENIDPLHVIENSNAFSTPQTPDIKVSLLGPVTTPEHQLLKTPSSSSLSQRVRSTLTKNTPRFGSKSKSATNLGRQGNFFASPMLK
The test is described as follows: MgcRacGAP GTPase-activating activity inhibitors, confirmation, biochemical, ADP Hunter fluorescence, primary and confirmatory (AID 624330). The test is classed as functional.

Test [12] has as its target T2, High affinity choline transporter 1 (Homo sapiens, UniProt Q9GZV3).
T2 sequence (Q9GZV3 whole entry): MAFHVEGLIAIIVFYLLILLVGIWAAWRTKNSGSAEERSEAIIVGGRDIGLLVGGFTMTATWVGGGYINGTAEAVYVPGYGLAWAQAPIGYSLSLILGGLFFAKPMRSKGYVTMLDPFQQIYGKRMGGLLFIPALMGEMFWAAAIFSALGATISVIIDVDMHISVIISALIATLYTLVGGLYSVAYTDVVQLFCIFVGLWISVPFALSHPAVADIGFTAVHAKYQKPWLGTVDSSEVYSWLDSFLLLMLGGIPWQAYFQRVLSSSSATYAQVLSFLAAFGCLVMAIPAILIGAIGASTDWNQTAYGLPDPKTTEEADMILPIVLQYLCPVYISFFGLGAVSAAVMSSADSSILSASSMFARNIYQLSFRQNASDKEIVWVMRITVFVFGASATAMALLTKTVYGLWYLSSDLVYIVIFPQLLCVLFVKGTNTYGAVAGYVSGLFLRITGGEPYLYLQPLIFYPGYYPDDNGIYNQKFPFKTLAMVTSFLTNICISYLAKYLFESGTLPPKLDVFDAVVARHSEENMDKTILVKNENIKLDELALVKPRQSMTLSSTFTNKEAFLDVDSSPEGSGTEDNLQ
The test is described as follows: CHT inhibitors, dose response, cell-based, 5-point CRC, membrane potential dye (AID 504840). The test is classed as functional.

Test [13] addresses T3, Mannose-6-phosphate isomerase (Homo sapiens, UniProt P34949).
T3 sequence (P34949 whole entry): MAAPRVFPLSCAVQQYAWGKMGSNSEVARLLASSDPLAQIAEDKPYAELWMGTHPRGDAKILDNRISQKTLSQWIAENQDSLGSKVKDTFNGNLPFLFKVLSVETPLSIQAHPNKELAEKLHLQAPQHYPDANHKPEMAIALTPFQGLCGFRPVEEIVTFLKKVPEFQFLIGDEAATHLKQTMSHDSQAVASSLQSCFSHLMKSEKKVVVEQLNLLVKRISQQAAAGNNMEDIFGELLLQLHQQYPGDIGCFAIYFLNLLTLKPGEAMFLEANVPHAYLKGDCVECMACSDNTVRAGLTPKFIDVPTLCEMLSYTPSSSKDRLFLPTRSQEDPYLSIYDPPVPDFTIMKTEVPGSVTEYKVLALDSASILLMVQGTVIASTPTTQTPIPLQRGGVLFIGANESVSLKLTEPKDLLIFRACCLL
In words: human PMI inhibitors, high substrate, primary screen, biochemical, fluorescence intensity, high mannose 6-phosphate (AID 1220).

Another test deals with Cytochrome P450 3A4 (Homo sapiens, UniProt P08684). The conditions noted are these: Potency.
Sequence of Cytochrome P450 3A4 (P08684 whole entry): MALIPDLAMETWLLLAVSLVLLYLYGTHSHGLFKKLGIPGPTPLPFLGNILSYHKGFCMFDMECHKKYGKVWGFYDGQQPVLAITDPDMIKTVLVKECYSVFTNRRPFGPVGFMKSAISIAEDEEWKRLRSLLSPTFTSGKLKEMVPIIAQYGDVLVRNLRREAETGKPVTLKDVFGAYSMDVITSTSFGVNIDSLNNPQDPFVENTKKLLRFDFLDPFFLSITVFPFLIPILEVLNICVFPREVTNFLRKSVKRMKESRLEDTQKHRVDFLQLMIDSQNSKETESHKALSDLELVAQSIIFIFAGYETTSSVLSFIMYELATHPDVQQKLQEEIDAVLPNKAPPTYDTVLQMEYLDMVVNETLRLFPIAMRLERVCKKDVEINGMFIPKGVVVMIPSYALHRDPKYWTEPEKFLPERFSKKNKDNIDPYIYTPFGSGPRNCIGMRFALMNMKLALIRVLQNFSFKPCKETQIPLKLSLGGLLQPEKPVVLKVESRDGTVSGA
In a further test the target is Mu-type opioid receptor (Homo sapiens, UniProt P35372). The test is described as follows: Counterscreen for agonists of heterodimerization of the mu 1 (OPRM1) and delta 1 (OPRD1) opioid receptors: Luminescence-based cell-based high throughput dose response assay to identify agonists of OPRM1 homodimerization. The test is classed as functional.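 Also: U2OS cells expressing OPRM1 and beta-arrestin as split beta-galactosidase partners.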
Sequence of Mu-type opioid receptor (P35372 whole entry): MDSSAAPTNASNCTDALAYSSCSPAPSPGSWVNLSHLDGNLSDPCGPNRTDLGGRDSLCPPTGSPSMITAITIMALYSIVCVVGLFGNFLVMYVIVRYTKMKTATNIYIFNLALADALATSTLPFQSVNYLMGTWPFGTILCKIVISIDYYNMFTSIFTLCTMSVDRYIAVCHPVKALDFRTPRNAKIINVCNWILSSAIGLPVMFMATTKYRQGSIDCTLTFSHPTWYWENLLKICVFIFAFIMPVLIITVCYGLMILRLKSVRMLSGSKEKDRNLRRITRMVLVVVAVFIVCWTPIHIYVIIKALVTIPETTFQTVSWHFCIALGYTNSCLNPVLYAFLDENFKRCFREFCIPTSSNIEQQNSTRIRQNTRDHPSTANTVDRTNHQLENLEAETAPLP
In test [14] the target is T4, DNA repair protein RAD52 homolog (Homo sapiens, UniProt P43351).
T4 sequence (P43351 whole entry): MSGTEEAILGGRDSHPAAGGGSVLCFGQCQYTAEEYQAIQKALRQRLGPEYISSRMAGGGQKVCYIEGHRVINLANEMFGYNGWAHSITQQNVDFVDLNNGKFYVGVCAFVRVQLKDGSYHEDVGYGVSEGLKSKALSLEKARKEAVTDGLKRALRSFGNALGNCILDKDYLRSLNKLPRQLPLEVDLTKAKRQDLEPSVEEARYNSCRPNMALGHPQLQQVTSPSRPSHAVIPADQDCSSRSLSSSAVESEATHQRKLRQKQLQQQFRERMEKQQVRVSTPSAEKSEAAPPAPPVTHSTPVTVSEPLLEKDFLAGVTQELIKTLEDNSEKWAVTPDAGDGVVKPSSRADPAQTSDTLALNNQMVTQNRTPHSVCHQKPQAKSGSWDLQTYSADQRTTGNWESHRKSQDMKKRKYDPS
In kind it is functional, biochemical.

Test [15] concerns the target 5-hydroxytryptamine receptor 5A (Homo sapiens, UniProt P47898). In words: Counterscreen for agonists of OPRM1-OPRD1 heterodimerization: luminescence-based cell-based high throughput dose response assay to identify agonists of 5-hydroxytryptamine (serotonin) 5A receptor (HTR5A). [Related pubchem assays (depositor defined):AID504326, AID504355, AID504692, AID504904, AID504905]. In kind it is functional.

The target of test [16] is Delta-type opioid receptor (Homo sapiens, UniProt P41143). In words: Counterscreen for agonists of heterodimerization of the mu 1 (OPRM1) and delta 1 (OPRD1) opioid receptors: Luminescence-based cell-based high throughput dose response assay to identify agonists of OPRD1 homodimerization. [Related pubchem assays (depositor defined):AID504326, AID504355, AID504692, AID504904, AID504905]. The test is classed as functional.
Sequence of Delta-type opioid receptor (P41143 whole entry): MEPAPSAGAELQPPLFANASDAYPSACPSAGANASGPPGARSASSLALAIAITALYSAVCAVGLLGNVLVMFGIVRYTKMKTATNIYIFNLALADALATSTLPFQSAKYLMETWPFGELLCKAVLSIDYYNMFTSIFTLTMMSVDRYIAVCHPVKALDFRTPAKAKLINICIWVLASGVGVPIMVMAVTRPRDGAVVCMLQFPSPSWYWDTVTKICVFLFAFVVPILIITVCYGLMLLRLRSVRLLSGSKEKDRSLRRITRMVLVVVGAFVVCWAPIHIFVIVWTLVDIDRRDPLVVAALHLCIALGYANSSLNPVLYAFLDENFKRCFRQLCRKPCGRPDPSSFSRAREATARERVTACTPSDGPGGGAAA

Sequence of 72 kDa type IV collagenase (P08253 whole entry): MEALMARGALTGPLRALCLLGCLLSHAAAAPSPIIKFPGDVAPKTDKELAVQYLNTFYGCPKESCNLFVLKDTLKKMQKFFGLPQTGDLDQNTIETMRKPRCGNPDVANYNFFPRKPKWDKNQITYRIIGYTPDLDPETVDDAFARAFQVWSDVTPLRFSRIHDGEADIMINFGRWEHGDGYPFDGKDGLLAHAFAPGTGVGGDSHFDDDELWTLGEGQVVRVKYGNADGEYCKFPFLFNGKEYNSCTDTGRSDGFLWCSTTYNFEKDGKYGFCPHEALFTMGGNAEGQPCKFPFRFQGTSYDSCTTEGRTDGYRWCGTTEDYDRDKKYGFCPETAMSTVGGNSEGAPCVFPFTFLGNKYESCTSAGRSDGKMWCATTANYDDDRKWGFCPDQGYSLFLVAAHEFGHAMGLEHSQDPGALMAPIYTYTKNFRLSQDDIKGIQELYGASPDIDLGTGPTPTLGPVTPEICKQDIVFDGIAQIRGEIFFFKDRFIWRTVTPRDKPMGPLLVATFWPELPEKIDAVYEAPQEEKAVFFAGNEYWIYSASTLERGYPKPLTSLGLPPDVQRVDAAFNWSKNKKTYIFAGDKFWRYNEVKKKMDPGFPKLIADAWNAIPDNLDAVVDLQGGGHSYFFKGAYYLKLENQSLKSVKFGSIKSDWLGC
Sequence of 5-hydroxytryptamine receptor 5A (P47898 whole entry): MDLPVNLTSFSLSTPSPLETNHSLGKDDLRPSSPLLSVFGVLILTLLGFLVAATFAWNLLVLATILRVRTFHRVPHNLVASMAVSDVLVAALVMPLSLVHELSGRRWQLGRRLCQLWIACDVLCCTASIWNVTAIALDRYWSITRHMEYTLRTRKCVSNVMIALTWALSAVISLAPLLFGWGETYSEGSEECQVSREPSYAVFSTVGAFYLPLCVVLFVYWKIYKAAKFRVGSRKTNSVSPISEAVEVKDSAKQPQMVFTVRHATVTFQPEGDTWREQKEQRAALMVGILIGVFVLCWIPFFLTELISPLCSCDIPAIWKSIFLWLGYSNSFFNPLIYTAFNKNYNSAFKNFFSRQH

Turning to `CCN=C(S)NCCN1CCOCC1`, the AC50 with Escherichia coli [1] is 24.7 µM (active).
On to `CCC(C)C1NC(=O)C2CCCN2C(=O)C(CC(C)C)OC(=O)CCNC(=O)C(C)N(C)C(=O)C(C(C)C)N(C)C1=O` (stereo not drawn) (cyclo([ξLac(3-iPr)]PI[NMeV][NMeA][βAla]); configuration not given here), for which the CC50 in the test with Vero [2] is > 25 µM (active). In addition, the IC50 with Vero [3] was 8.21 µM (active).
With `CCN(CC)S(=O)(=O)c1cc(NC(=O)C2CCN(c3ncnc4sc(C)c(C)c34)CC2)ccc1Cl`, the half-maximal activity concentration (AC50) in test [4] is 7.1 µM (active); in test [5] it was 5.08 µM (active); in test [6] it was 10.6 µM (active).
As to `CCN=c1ccc(Br)cc(C(=O)/C=C/c2ccc(Cl)cc2Cl)c1O`, in the test on Vero [2], the CC50 was 11.1 µM (active). Further, the 50% inhibitory concentration (IC50) with Vero [3] was 11.6 µM (active); in [7], 3.71 µM (active).
For `O=C(Nc1cccnc1)c1cccc(-c2cc3ccccc3oc2=O)c1`, the IC50 on Prothrombin was 53.8 µM (active); in [8], 9.88 µM (active); in test [9] it was > 100 µM (inactive).
In the case of `COc1ccc(S(=O)(=O)N(C)C[C@@H]2Oc3c(NC(=O)Nc4cccc(C(F)(F)F)c4)cccc3C(=O)N([C@@H](C)CO)C[C@H]2C)cc1`, in the test on INS1, the concentration at half-maximal activity (AC50) is 134 µM (active).
As to `Cc1ccc(-n2nnnc2-c2cnoc2-c2cccc(F)c2)cc1`, the AC50 in the test with Escherichia coli [10] was 126 µM (active); in the test with Escherichia coli [1] it was 24.5 µM (active).
For the compound `COc1cccc(CNc2ccc(N3CCCCC3)cc2)c1OC`, the figures for the 50% inhibitory concentration (IC50) in test [11], in test [12] and in test [13] were 5.96 µM (active), 11.5 µM (active) and > 50 µM (not active), respectively.
As to `C[C@@H]1CN([C@@H](C)CO)C(=O)c2cccc(NC(=O)Nc3cccc4ccccc34)c2O[C@H]1CN(C)S(=O)(=O)c1ccc(-c2ccccc2)cc1`, the AC50 with INS1 is > 195 µM (inactive).
Take `Cc1ccc(C(=O)COC(=O)c2cc(O)nc3ccccc23)cc1C`: the IC50 on Prothrombin was > 100 µM (inactive); in test [8], 22.3 µM (active); in [9] it was > 100 µM (inactive).
`CCOc1cccc2sc(N(CCCN(C)C)C(=O)c3ccc(S(=O)(=O)N4CCCCCC4)cc3)nc12`: the AC50 in the test on Escherichia coli [10] is > 380 µM (inactive); in the test on Escherichia coli [1] it was 19.6 µM (active).
With `O=C1CCCC2=C1CC(C(=O)OCc1ccccc1)C(=O)N2Cc1ccccc1` (stereo not drawn), the half-maximal activity concentration (AC50) in the test with Escherichia coli [10] is 13.8 µM (active).
As for `COc1ccccc1C1N(c2ccc(Cl)cc2)C(=O)C2CCCN21` (stereo not drawn), the IC50 with Vero [3] is > 25 µM (active).
Turning to `O=C(/C=C/c1ccc(O)c(O)c1)OCCc1ccccc1` [CAFFEIC ACID PHENETHYL ESTER], the AC50 in [4] is > 70 µM (inactive); in test [5], 0.877 µM (active); on Cytochrome P450 3A4, 31.6 µM (inconclusive); in [6], 1.11 µM (active).
In the case of `CC(=O)C1CCC2C3CC=C4CC(SC(=N)N)CCC4(C)C3CCC12C` (stereo not drawn), the EC50 is > 92.4 µM (inactive) on Mu-type opioid receptor, > 92.4 µM (inactive) in test [15] and > 10.3 µM (inactive) in test [16]. For the same compound, the half-maximal activity concentration (AC50) in test [14] is 7.48 µM (active).
With `Cc1sc2nc(CSc3nnc(Cc4cccs4)n3C3CCCCC3)[nH]c(=O)c2c1C`, the IC50 at Prothrombin was 21.5 µM (active); in test [8], 15.5 µM (active); in [9], > 100 µM (inactive).
`Cc1ccc(-c2nnc(N3CC(C)OC(C)C3)c3ccccc23)cc1` (stereo not drawn): the half-maximal inhibitory concentration (IC50) in test [12] is 17.4 µM (active).
